# Experimental data from US20160045614A1, “TARGETED LIPOSOMAL COMPOSITION USING ANTI-HER-2 AFFIBODY MOLECULES AND APPLICATIONS THEREOF IN CANCER TREATMENT” (priority 2014, published 2016).
# How the values were obtained:
# [1] = tested on: SKBR3, TUBO and MDA-MB231 Cells; test: Cytotoxicity study, MTS assay; type: cell-based; conditions: 1 and 3 hours incubation, then 72 hours; FIG. 4
# Method: The anti-proliferative effects of prepared liposomes containing Dox were assessed on SKBR3, TUBO and MDA-MB231 Cells using MTS assay (Promega). For this purpose, the cells were seeded at 5000 cells/well in 96 well plates. After overnight incubation, the medium was replaced with an FCS-free medium containing 1:2 serial dilutions of liposomal Dox or free Dox for scheduled incubation times (1 and 3 hours) at 37° C. The cells were washed gently in PBS and further incubated in the free drugs medium at 37° C. for 72 hours. The viability of cells was determined using a Promega MTS kit. Then, the IC50 of formulations were calculated.
# TUBO tumor = test: In vivo chemotherapy study, TUBO tumor model; parameters: species or system female BALB/c mice; conditions: 15 mg/kg; possibly acute cardiac toxicity
# Method: All animal experiments were conducted in compliance with the Institutional Ethical Committee and Research Advisory Committee of Mashhad University of Medical Sciences guidelines. On day 0, female BALB/c mice, aged 4-6 weeks, were given subcutaneous injections of TUBO tumor cells (5×10^5 cells per mouse) in the right flank. On day 14, tumor bearing mice with palpable size received medication via a single tail vein injection of either dextrose 5% solution as negative control or doxorubicin at 15 mg/kg encapsulated in liposomes. Mice were weighed and tumor sizes were monitored within 60 days post-injection and the experiment was terminated for those mice that felt so unwell. Kaplain-Meier event free survival probability curve was obtained for each experimental group.
structure (smiles),measurement,setting,value
"COc1cccc2c1C(=O)c1c(O)c3c(c(O)c1C2=O)C[C@@](O)(C(=O)CO)C[C@@H]3O[C@H]1C[C@H](N)[C@H](O)[C@H](C)O1.Cl [Dox, doxorubicin hydrochloride]",cytotoxicity (IC50) on HER2+ cell lines SKBR3 and TUBO against HER2− cell line MDA-MB-231,[1],no distinguishing difference between cytotoxicity of HER2^+ and HER2^− cells
same,survival of the group under conventional Dox treatment,TUBO tumor,died in early days
